Measurements from patent US20050187190A1, “Autoinducer-2 compounds as immunomodulatory agents” (priority 2004, published 2005).

Assays:
[1] = system: nitric oxide production (iNOS activity) in J774 macrophages; assay: Nitric oxide (nitrite) production by LPS-stimulated J774 macrophages; type: cell-based, mouse
Experimental: FIG. 10 is a bar graph showing that AI-2 treatment suppresses nitric oxide production by LPS-stimulated J774 macrophages. “LPS+34,” “LPS+AI-2(5 ul)” and LPS+AI-2(2 ul) represents inhibition by concurrent treatment with LPS and MHF or the indicated amounts of AI-2. “LPS+ribose” is a control to show the amount of nitric oxide production in the absence of an inhibitor.

[2] = system: IL-1 production in J774 macrophages; assay: IL-1 production by stimulated J774 macrophages, ELISA of culture supernatants; type: cell-based, mouse; settings: for release of IL-1: absence of exogenously-supplied immunostimulatory factors; for effect on IL-1 production: LPS-treated macrophages
Experimental: (§1) J774.1 macrophages were cultured in RPMI 1640 medium containing 15% fetal calf serum in a humidified 37° C. incubator supplied with 5% CO2. Cells were plated at 50% confluency in 96 well format and allowed to attach overnight. For immunostimulation experiments, cells were incubated overnight in 100 μl of the above medium containing sub-maximal stimulatory levels of inducers: 0.1 μg/mL Salmonella lipopolysaccharide (Sigma), 1 μg/mL lipoteichoic acid (Sigma) or sterile, cell-free bacterially conditioned medium at a final concentration of 10^7 cell equivalents/mL. Following incubation, the medium was removed, centrifuged, and stored at −20° C. for subsequent assay for the presence of released cytokines. Preparation of bacterially conditioned medium Pseudomonas aeruginosa strain PAO1 and Lux^+ or Lux^− strains of Salmonella typhimurium 14028 were cultured in Luria Broth overnight. The optical density of the cultures was measured at 600 nm and cell densities calculated through use of a MacFarland's standard. Bacterial cultures were centrifuged and supernatants were filtered through a 0.2 micron sterile filter to remove all bacteria.
(§2) Centrifuged macrophage culture supernatants were assayed for the presence of secreted IL-1 and IL-6 through use of an ELISA kit according to the manufacturer's directions (R&D Systems, Minneapolis, Minn.). Briefly, 10 μl of culture supernatants were bound to test wells precoated with either anti-IL-1 or anti-IL-6 immunoglobulin. Bound cytokine was detected through use of a secondary cytokine-specific antibody tagged with horseradish peroxidase. Assay samples were developed through use of stabilized tetramethylbenzidine and hydrogen peroxide. Cytokine level, directly proportional to the colorimetric signal, was quantitated by measuring sample absorbance at 450 nm.

recombinant COX-2 = target: T1, recombinant COX-2 (Homo sapiens, UniProt P35354); assay: Inhibition of recombinant COX-2 prostaglandin synthesis, ELISA for PGE2; type: biochemical
T1 sequence (P35354 18-604): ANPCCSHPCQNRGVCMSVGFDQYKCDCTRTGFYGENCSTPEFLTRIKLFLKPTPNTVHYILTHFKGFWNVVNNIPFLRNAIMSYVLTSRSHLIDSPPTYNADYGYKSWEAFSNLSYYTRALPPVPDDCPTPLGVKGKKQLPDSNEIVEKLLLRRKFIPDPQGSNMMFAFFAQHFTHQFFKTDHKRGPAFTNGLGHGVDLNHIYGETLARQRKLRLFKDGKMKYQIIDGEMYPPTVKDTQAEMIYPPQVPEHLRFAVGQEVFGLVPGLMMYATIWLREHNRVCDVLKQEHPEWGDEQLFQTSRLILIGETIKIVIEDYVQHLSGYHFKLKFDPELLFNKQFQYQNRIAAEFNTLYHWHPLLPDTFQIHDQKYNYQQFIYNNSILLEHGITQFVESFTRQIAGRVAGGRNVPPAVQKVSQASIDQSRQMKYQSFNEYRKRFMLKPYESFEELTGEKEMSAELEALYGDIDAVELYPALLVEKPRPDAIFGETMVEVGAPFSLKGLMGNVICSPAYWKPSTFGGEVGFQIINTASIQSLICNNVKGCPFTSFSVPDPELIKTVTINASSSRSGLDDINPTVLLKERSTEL
Experimental: “Max Inhibition” and “Aspirin/1000 uM” are positive inhibition controls. “Analog/500 uM,” represents the inhibition of prostaglandin synthesis by 500 μM MHF; “AI-2/40 uM” and “AI-2/80 uM” represents the inhibition of prostaglandin synthesis by 40 and 80 μM, respectively of AI-2. “Ribose/500 um” the inhibition of prostaglandin synthesis by 500 μM ribose. Prostaglandin synthesis was indirectly quantitated using an ELISA for PGE2 production.
Extracellular bacterial signals trigger expression of cyclooxygenase-2 (cox-2), which amplifies the cellular IL-6 response by catalyzing production of prostaglandin PGE2.
Aspirin, a non-specific inhibitor of COX-2 served as an inhibition control; prostaglandin synthesis was indirectly quantitated in an ELISA assay.

[3] = system: IL-6 production in J774 macrophages; assay: IL-6 production by stimulated J774 macrophages, ELISA of culture supernatants; type: cell-based, mouse; settings: for release of IL-6: absence of exogenously-supplied immunostimulatory factors; for production of IL-6: regardless of stimulus: viral ribopolymers, LPS or lipoteichoic acid; for effect on IL-6 production: LPS-treated macrophages
Experimental: as §1, §2

MM32 = MM32 light production assay (quorum sensing activity); type: cell-based, Vibrio harveyi
From the text: Such agonists and analogs can be readily recognized by their action on the quorum-sensing system of bacteria such as mutant strains of Vibrio harveyi that respond to AI-2 but cannot produce it themselves. For example, AI-2 analogs and agonists can be identified by known techniques, including but not limited to, large-scale screening of compounds through use of the V. harveyi bioassay described in U.S. Pat. No. 6,780,890 and other techniques described therein. Reduction in signaling activity in the presence of a test compound indicates the ability of that compound to, for example, block bacterial pathogenesis by affecting the expression of one or more virulence factors.

[4] = LPS 0.1 μg/mL, concurrent AI-2 40 μM
[5] = LPS-stimulated macrophages, increasing amounts of enzymatically-prepared AI-2

SMILES: CC(=O)C(=O)[C@@H](O)CO [AI-2]
- nitrite (breakdown product of nitric oxide) level [1]: near baseline levels
- reduction of overall concentration of IL-1 [2, 4]: approximately 50%
- IL-1 production, dose dependence [2, 5]: increasing suppression
- release of IL-1 [2]: neither AI-2 nor its biosynthesis co-products, adenine and homocysteine, cause macrophages to release IL-1 or IL-6
- IC50 (recombinant COX-2; read-out: IC50, prostaglandin level produced by recombinant COX-2): 40 µM
- reduction of overall concentration of IL-6 [3, 4]: approximately 50%
- IL-6 production, dose dependence [3, 5]: increasing suppression
- release of IL-6 [3]: neither AI-2 nor its biosynthesis co-products, adenine and homocysteine, cause macrophages to release IL-1 or IL-6
- reduction in IL-6 levels ([3]; macrophages stimulated with LPS (0.1 μg/ml), 5 μl of the AI-2 reaction product): ~50%
- IC50 ([3]; read-out: IC50, inhibition of IL-6 production in macrophages): 40 µM
- production of IL-6 [3]: decrease production of IL-6

SMILES: CC1=C(O)C(=O)CO1 [MHF, 5-methyl-4-hydroxy-3(2H)furanone]
- nitrite (breakdown product of nitric oxide) level [1]: near baseline levels
- quorum sensing activity (MM32): displays quorum sensing activity
- quorum-sensing activity (MM32; 500 μg/ml MHF): comparable to 2.5 μL enzymatically-synthesized AI-2
- inhibition of Cox-2 prostaglandin synthetase activity (recombinant COX-2; 500 μM MHF): inhibition of Cox-2 prostaglandin synthetase activity
- IL-6 production ([3]; LPS-stimulated J774 macrophages): suppression of IL-6 production
- IL-6 production ([3]; lipoteichoic acid-stimulated J774 macrophages): suppression of IL-6 production
- production of IL-6 [3]: decrease production of IL-6
- reduction in IL-6 production ([3]; stimulated J774 macrophages, 500 μM MHF): 50%
- concentration at which near maximal attenuation of IL-6 release occurs ([3]; stimulated J774 macrophages, little change at higher concentrations): 877 µM
- concentration at which detectable attenuation of IL-6 release occurs ([3]; stimulated J774 macrophages, titration): 105 µM
- IL-6 production ([3]; viral ribopolymer (polyCI)-stimulated J774 macrophages): suppression of IL-6 production

SMILES: Nc1ncnc2nc[nH]c12 [adenine, reference compound]
- release of IL-1 [2]: neither AI-2 nor its biosynthesis co-products, adenine and homocysteine, cause macrophages to release IL-1 or IL-6
- release of IL-6 [3]: neither AI-2 nor its biosynthesis co-products, adenine and homocysteine, cause macrophages to release IL-1 or IL-6

SMILES: O=C1O[C@H]([C@@H](O)CO)C(O)=C1O [ascorbic acid, reference compound]
- effect on IL-1 production [2]: affect neither IL-1 nor IL-6 production
- effect on IL-6 production [3]: affect neither IL-1 nor IL-6 production

SMILES: N[C@@H](CCS)C(=O)O [homocysteine, reference compound]
- release of IL-1 [2]: neither AI-2 nor its biosynthesis co-products, adenine and homocysteine, cause macrophages to release IL-1 or IL-6
- release of IL-6 [3]: neither AI-2 nor its biosynthesis co-products, adenine and homocysteine, cause macrophages to release IL-1 or IL-6

SMILES: O=C[C@H](O)[C@H](O)[C@H](O)CO [ribose, reference compound]
- quorum-sensing activity (MM32; 50 μM ribose): lacks quorum-sensing activity
- effect on IL-1 production [2]: affect neither IL-1 nor IL-6 production
- inhibition of PGE2 production (recombinant COX-2; 500 μM ribose): inability of ribose (even at high concentrations, 500 μM) to inhibit PGE2 production
- effect on IL-6 production [3]: affect neither IL-1 nor IL-6 production
- production of IL-6 [3]: effects no attenuation
